The text below walks through data of PMC5761471 (Journal of Pharmaceutical Analysis, 2014).

Data set [1] in a line: Bioequivalence study, oral 400 mg raltegravir tablets. To be noted: healthy Indian subjects. It counts as in vivo, human.
The conditions of data set [2]: stated, not tested in this paper; cited from earlier work.
Data set [3] in a line: Stability of raltegravir in spiked human plasma and processed extracts. The format is in vitro ADME. The settings on record: n=6.
The conditions of data set [4]: cited from earlier work.
Data set [5] in a line: Stability of standard stock solutions. It counts as physicochemical. To be noted: stock solution in methanol, 25 °C.
[6] abbreviates: Bench-top, room temperature (25 °C), 8 h, nominal 6.0 ng/mL.
Where [7] appears, read: Bench-top, room temperature (25 °C), 8 h, nominal 5000 ng/mL.
[8] abbreviates: Dry extract in deep freezer at −20 °C for 65 h, nominal 6.0 ng/mL.
Where [9] appears, read: Dry extract in deep freezer at −20 °C for 65 h, nominal 5000 ng/mL.
The mark [10] stands for this setting: Freeze-thaw after 5th cycle at −20 °C, nominal 6.0 ng/mL.
Where [11] appears, read: Freeze-thaw after 5th cycle at −20 °C, nominal 5000 ng/mL.
[12] abbreviates: Freeze-thaw after 5th cycle at −70 °C, nominal 6.0 ng/mL.
Setting [13] is: Freeze-thaw after 5th cycle at −70 °C, nominal 5000 ng/mL.
Setting [14] is: Long-term at −20 °C for 42 days, nominal 6.0 ng/mL.
[15] abbreviates: Long-term at −20 °C for 42 days, nominal 5000 ng/mL.
Where [16] appears, read: Long-term at −70 °C for 42 days, nominal 6.0 ng/mL.
Setting [17] is: Long-term at −70 °C for 42 days, nominal 5000 ng/mL.
Where [18] appears, read: Wet extract (autosampler) at 4 °C for 65 h, nominal 6.0 ng/mL.
Setting [19] is: Wet extract (autosampler) at 4 °C for 65 h, nominal 5000 ng/mL.
The mark [20] stands for this setting: Wet extract at 25 °C for 4 h, nominal 6.0 ng/mL.
Where [21] appears, read: Wet extract at 25 °C for 4 h, nominal 5000 ng/mL.

On to `Cc1nnc(C(=O)NC(C)(C)c2nc(C(=O)NCc3ccc(F)cc3)c(O[C@@H]3O[C@H](C(=O)O)[C@@H](O)[C@H](O)[C@H]3O)c(=O)n2C)o1` [RAL-Glu, raltegravir glucuronide], for which, in data set [1] (up to 4 h after oral administration of the drug), the “presence of circulating metabolite in plasma of subject samples” value is “complete absence”. Further, in data set [2], the pharmacological activity result was “pharmacologically inactive”.
As to `Cc1nnc(C(=O)NC(C)(C)c2nc(C(=O)NCc3ccc(F)cc3)c(O)c(=O)n2C)o1` [raltegravir], the Change in data set [3] (setting [6]) is reported as 7.17%; in data set [3] (setting [7]) it was −5.81%; in data set [3] (setting [8]), 3.83%; in data set [3] (setting [9]) it was −2.52%; in data set [3] (setting [10]), 2.83%; in data set [3] (setting [11]), −4.54%. In addition, the Change is 2.83% in data set [3] (setting [12]); −3.90% in data set [3] (setting [13]); −1.00% in data set [3] (setting [14]); −3.12% in data set [3] (setting [15]); 3.33% in data set [3] (setting [16]); −2.77% in data set [3] (setting [17]). Further, the Change was 4.00% in data set [3] (setting [18]), −3.24% in data set [3] (setting [19]), 3.83% in data set [3] (setting [20]) and −0.81% in data set [3] (setting [21]). Further, the “Mean stability sample ±SD” value was 6.43 ± 0.15 ng/mL in data set [3] (setting [6]); 4709.67 ± 72.69 ng/mL in data set [3] (setting [7]); 6.23 ± 0.25 ng/mL in data set [3] (setting [8]); 4874.00 ± 183.04 ng/mL in data set [3] (setting [9]); 6.17 ± 0.22 ng/mL in data set [3] (setting [10]); 4773.50 ± 106.40 ng/mL in data set [3] (setting [11]). In addition, the “Mean stability sample ±SD” value is 6.17 ± 0.24 ng/mL in data set [3] (setting [12]); 4804.83 ± 218.23 ng/mL in data set [3] (setting [13]); 5.94 ± 0.26 ng/mL in data set [3] (setting [14]); 4844.00 ± 247.40 ng/mL in data set [3] (setting [15]); 6.20 ± 0.23 ng/mL in data set [3] (setting [16]); 4861.50 ± 315.59 ng/mL in data set [3] (setting [17]). The “Mean stability sample ±SD” value stood at 6.24 ± 0.28 ng/mL in data set [3] (setting [18]), 4838.17 ± 209.68 ng/mL in data set [3] (setting [19]), 6.23 ± 0.25 ng/mL in data set [3] (setting [20]) and 4959.33 ± 287.84 ng/mL in data set [3] (setting [21]). The “increase of area under the plasma-time curve (AUC) with a high fat meal” value in data set [4] was “about 19%”. The “short-term stability of stock solution (stable up to)” value in data set [5] is on record as “up to 8 h”. Besides, the “time required to reach peak plasma concentration” value in data set [1] (single 400 mg oral dose, fasting) is recorded as ~ 2 h.
